For series [1] the following is noted: humans; cited from earlier work.
The subject of series [2] is subjects with schizophrenia. The experiment in a line: Correlation of pre-treatment resting-state EEG metrics (power law exponent, beta power) with response to poma treatment (MCCB domain scores), clinical trials NCT00845026 and NCT01052103. Type of series: in vivo, human. As to conditions: subgroups of patients identified by EEG metrics (Examples 1-3). An excerpt: The power spectrum of resting state EEG signals, when viewed in the frequency domain (that is, with frequency of oscillation on the x-axis and power on the y-axis), forms roughly a straight line, when viewed on a log-log plot; see FIG.5 (from Miller et al. […] PLoS Comput Biol 5(12): e1000609)
Mathematically, this can be expressed as log (P)=k−βlog (f), or equivalently, P αf−β1/fβ), where P=power, f=frequency, −β is the slope of the fitted line, and k is a constant. This phenomenon is known by various terms, such as a “power law” spectrum or “1/f noise”. It is often referred to as “scale invariant” or “fractal” behavior (Lowen and Teich, 2005), as the power law exponent, β, is constant regardless of the resolution at which it is calculated.
This study used data from clinical trials NCT00845026 (N=117) and NCT01052103 (N=196), which studied male and female subjects with schizophrenia treated with poma vs. antipsychotic agent standard of care. […] We calculated only power at the stimulated frequency and, for recordings in the resting state, the power law exponent (PLE; also known as the “fractal exponent”). […] We calculated all predictive measures for each EEG electrode. […]

The subject of series [3] is subjects with schizophrenia. Conditions: cited from earlier work.

Consider `N[C@@]1(C(=O)O)CS(=O)(=O)[C@H]2[C@H](C(=O)O)[C@H]21` [pomaglumetad], for which the “Oral absorption and bioavailability” value in series [1] is “low”.

Consider `CSCC[C@H](N)C(=O)N[C@@]1(C(=O)O)CS(=O)(=O)[C@H]2[C@H](C(=O)O)[C@H]21` [poma, Pomaglumetad methionil], for which, in series [2], the “Cognitive function in measures of working memory, reasoning/problem solving, and attention/vigilance” value was “significant improvement in cognitive function”. For the same compound, the “Efficacy versus placebo as determined with PANSS total scores” value in series [3] (clinical studies, halted) was “not significantly more efficacious than the placebo”. The “Dosage shown to be efficacious” value in series [3] (early phase II monotherapy trial) is listed as 40 mg BID.

Values taken from patent US20220313170A1, “METHOD OF INCREASING COGNITIVE FUNCTION WITH GLUTAMATE RECEPTOR AGONIST” (priority 2019, published 2022).
